Converted amounts (≈) assume the structure as drawn. “And” between values parts separate entries of the source, which are not always exact repeats. Equal values may be shown once. Marks after values point to notes of the source that are not given here.
Key:
[1] = tested on: S. flexneri; assay: Sugar leakage through membrane of bacteria; assay type: cell-based, Shigella flexneri; settings: ½ MIC, 2 MIC, 12 h
[2] = tested on: Candida albicans ATCC10231; assay: Broth microdilution MIC/MMC
[3] = tested on: methicillin sensitive S. aureus MSSA01; assay: Broth microdilution MIC/MMC
[4] = tested on: Pseudomonas aeruginosa ATCC27853; assay: Broth microdilution MIC/MMC
[5] = tested on: S. flexneri; assay: Cell membrane leakage assay (260 and 280 nm absorbing material); assay type: cell-based, Shigella flexneri; settings: at concentrations equal to or two times MIC, concentration dependent
Procedure: (§1) The alteration of cell membrane of P. aeruginosa and S. flexneri was evaluated by measuring the optical densities at 260 nm and 280 nm of the bacterial suspensions in the presence and absence of MeOH extract and compound 2 using the method described by Karsha and Lakshmi.

[6] = tested on: Cryptococcus neoformans H99; assay: Broth microdilution MIC/MMC
[7] = tested on: Shigella flexneri SDINT; assay: Broth microdilution MIC/MMC
[8] = tested on: P. aeruginosa; assay: Checkerboard combination with antibiotic (FIC); assay type: cell-based, Pseudomonas aeruginosa; settings: combined with ciprofloxacin
[9] = tested on: respiratory chain dehydrogenase in P. aeruginosa; assay: Respiratory chain dehydrogenase enzyme activity (TTC reduction); assay type: cell-based, Pseudomonas aeruginosa; settings: increasing concentration, 0, 30, 60 min
[10] = tested on: MSSA01; assay: Checkerboard combination with antibiotic (FIC); assay type: cell-based, Staphylococcus aureus; settings: combined with ciprofloxacin
[11] = tested on: MRSA03; assay: Checkerboard combination with antibiotic (FIC); assay type: cell-based, Staphylococcus aureus; settings: combined with ciprofloxacin
[12] = tested on: C. albicans; assay: Checkerboard combination with antibiotic (FIC); assay type: cell-based, Candida albicans; settings: combined with fluconazole
[13] = tested on: S. aureus; assay: Checkerboard combination with antibiotic (FIC); assay type: cell-based, Staphylococcus aureus; settings: combined with ciprofloxacin
[14] = tested on: C. neoformans; assay: Checkerboard combination with antibiotic (FIC); assay type: cell-based, Cryptococcus neoformans; settings: combined with fluconazole
[15] = tested on: respiratory chain dehydrogenase in S. flexneri; assay type: cell-based, Shigella flexneri; settings: 0, 30, 60 min
[16] = Gallic acid equivalent antioxidant capacity (GEAC) assay; assay type: biochemical; settings: laccase/ABTS, 420 nm after 240 s; mean ± SD
Procedure: The GEAC test was done as previously described with slight modifications. In a quartz cuvette, to 950 μL acetate buffer (pH =5.0, 100 mM), the following were added: 20 μL laccase (1 mM stock solution), 20 μL test sample, 10 μL ABTS (2,2′-azinobis(3-ethylbenzothiazoline-6-sulfonic acid) (74 mM stock solution). The purification of laccase from Sclerotinia sclerotiorum was done according to the protocol described. The sample concentrations in the assay mixture were 800, 400, 200, 100, 10 μg/mL for the extracts and 200, 100, 50, 25, 12.5, 6.25, 3.125, 1.56 μg/mL for the isolated compounds. The content of the generated ABTS^●+ radical was measured at 420 nm after 240 s reaction time and was converted to gallic acid equivalents by the use of a calibration curve (Pearson’s correlation coefficient: r = 0.997) constructed with 0, 4, 10, 14, 28, 56, 84 μM gallic acid standards rather than Trolox. Experiments were done in triplicate.

[17] = DPPH free radical scavenging assay; assay type: biochemical; settings: mean ± SD, triplicate
Procedure: The free radical scavenging activity of extracts and compounds was evaluated according to described methods. The EC50 (μg/ml), which is the amount of sample necessary to inhibit by 50% the absorbance of free radical DPPH was calculated. Vitamin C was used as a standard control. All the analyses were carried out in triplicate.

[18] = tested on: S. flexneri; assay: Checkerboard combination with antibiotic (FIC); assay type: cell-based, Shigella flexneri; settings: combined with ciprofloxacin
Procedure: (§2) The inoculum was initially prepared as described above. The test microorganisms were inoculated into a 96-well microtitre plates and a serial dilution of two antimicrobial agents: antibiotic and MeOH extract, compound 2 or 4. Each well consisted of unique combination of test sample and antibiotic concentrations. The plates were then incubated for 24 h at 37 °C. The analyses were performed in triplicates. And the antimicrobial agents interactions were evaluated by calculating the fractional inhibitory concentration (FIC) indices. The FIC is defined as follows: MIC of antibiotic tested in combination/MIC of antibiotic tested alone + MIC of extract/compound tested in combination/MIC of extract/compound tested alone. The FIC index is interpreted as FIC ≤ 0.5: synergistic effect, 0.5 < FIC ≤1: additive effect, 1 < FIC ≤2: indifferent effect, and FIC > 2.0: antagonistic effect.

[19] = tested on: bacterial and yeast species; assay: Checkerboard combination with antibiotics, whole panel; assay type: cell-based; settings: overall statement over the microorganisms tested
Procedure: as §2

[20] = tested on: P. aeruginosa; assay: Sugar leakage through membrane of bacteria; settings: ½ MIC, 2 MIC, 12 h
Procedure: After incubation, the mixture was centrifuged at 12,000 rpm and the supernatant was collected. The concentration of reducing sugar was determined spectrophotometrically at 550 nm using 3–5 dinitro-salicylic acid (DNS) [29].

[21] = tested on: P. aeruginosa; assay: Cell membrane leakage assay (260 and 280 nm absorbing material); assay type: cell-based, Pseudomonas aeruginosa; settings: at concentrations equal to or two times MIC, concentration dependent
Procedure: as §1

[22] = tested on: methicillin resistant S. aureus MRSA03; assay: Broth microdilution MIC/MMC
[23] = tested on: Staphylococcus aureus ATCC25923; assay: Broth microdilution MIC/MMC
[24] = tested on: red blood cells (RBCs); assay type: cell-based, Wistar rats (Rattus novergicus)
Procedure: Three male Wistar rats (Rattus novergicus), aged 10–12 weeks and weighing 230 to 240 g were used. These animals were bred in the animal house of the University of Dschang, Cameroon. Efforts were also made to minimize animal suffering and to reduce the number of animal used in the experiment. All the rats were anaesthesized via intraperitoneal injection of the mixture of ketamine (50 mg/ kg body weight, BW) and xylazine (10 mg /kg BW), in a dose that is commonly used for operation purposes. Subsequently the unconscious animals were decapitated swiftly and the whole blood (10 mL) was collected by cardiac puncture into a conical tube containing Ethylene Diamine Tetra Acetic Acid (EDTA) as an anticoagulant. Erythrocytes were obtained by centrifugation at room temperature for 10 min at 1000 x g and were washed three times in PBS buffer. The cytotoxicity was evaluated as previously described.
The cytotoxic activity of extracts and isolated compounds from R. abyssinicus was studied by assessing the haemolytic activity against red blood cells (RBCs) using Triton X-100 as a positive control.

Which results are given for COc1cc(O)c2c(c1)C(=O)c1cc(C)cc(O)c1C2=O [Compound 2, Physcion]?
appearance of reducing sugar in the bacterial culture suspension [1]: increased; MMC/MIC ([2]; C. albicans): 1; MMC ([2]; C. albicans, sub-culturing after broth microdilution): 8 µg/mL; MIC ([2]; Candida albicans, ATCC10231): 8 µg/mL (≈ 28.1 µM); MMC/MIC ([3]; MSSA01): 2; MMC ([3]; MSSA01, sub-culturing after broth microdilution): 32 µg/mL; MIC ([3]; Staphylococcus aureus): 16 µg/mL (≈ 56.3 µM); MMC/MIC ([4]; P. aeruginosa): 2; MMC ([4]; P. aeruginosa, sub-culturing after broth microdilution): 16 µg/mL; MIC ([4]; Pseudomonas aeruginosa, ATCC27853): 8 µg/mL (≈ 28.1 µM); leakage of biological material absorbing at 260 and 280 nm [5]: induced leakage; MMC/MIC ([6]; C. neoformans): 1; MMC ([6]; C. neoformans, sub-culturing after broth microdilution): 8 µg/mL; MIC ([6]; Cryptococcus neoformans, H99): 8 µg/mL (≈ 28.1 µM); MMC/MIC ([7]; S. flexneri): 2; MMC ([7]; S. flexneri, sub-culturing after broth microdilution): 16 µg/mL; MIC ([7]; Shigella flexneri): 8 µg/mL (≈ 28.1 µM); Interpretation (of FIC index) [8]: Synergistic (FIC ≤ 0.5: synergistic effect); FICEx / FIC2 / FIC5 (MIC of extract/compound tested in combination/MIC of extract/compound tested alone) ([8]; checkerboard): 0.125; FICA (MIC of antibiotic tested in combination/MIC of antibiotic tested alone) ([8]; checkerboard, 24 h at 37 °C): 0.125; respiratory chain dehydrogenase activity (TPF formed) [9]: significant decrease in the TPF formed; FIC (fractional inhibitory concentration index) [10]: 0.5625; FICEx / FIC2 / FIC5 (MIC of extract/compound tested in combination/MIC of extract/compound tested alone) [10]: 0.5; FICA (MIC of antibiotic tested in combination/MIC of antibiotic tested alone) ([10]; 24 h at 37 °C): 0.0625; FIC (fractional inhibitory concentration index) [11]: 0.5625; FICEx / FIC2 / FIC5 (MIC of extract/compound tested in combination/MIC of extract/compound tested alone) [11]: 0.5; FICA (MIC of antibiotic tested in combination/MIC of antibiotic tested alone) ([11]; 24 h at 37 °C): 0.0625; Interpretation (of FIC index) [12]: Synergistic (FIC ≤ 0.5: synergistic effect); FIC (fractional inhibitory concentration index) ([12]; checkerboard): 0.125; FICEx / FIC2 / FIC5 (MIC of extract/compound tested in combination/MIC of extract/compound tested alone) ([12]; checkerboard): 0.0625; FICA (MIC of antibiotic tested in combination/MIC of antibiotic tested alone) ([12]; checkerboard, 24 h at 37 °C): 0.0625; Interpretation (of FIC index) [13]: Synergistic (FIC ≤ 0.5: synergistic effect); FIC (fractional inhibitory concentration index) ([13]; checkerboard): 0.375; FICEx / FIC2 / FIC5 (MIC of extract/compound tested in combination/MIC of extract/compound tested alone) ([13]; checkerboard): 0.125; FICA (MIC of antibiotic tested in combination/MIC of antibiotic tested alone) ([13]; checkerboard, 24 h at 37 °C): 0.25; Interpretation (of FIC index) [14]: Synergistic (FIC ≤ 0.5: synergistic effect); FIC (fractional inhibitory concentration index) ([14]; checkerboard): 0.125; FICEx / FIC2 / FIC5 (MIC of extract/compound tested in combination/MIC of extract/compound tested alone) ([14]; checkerboard): 0.0625; FICA (MIC of antibiotic tested in combination/MIC of antibiotic tested alone) ([14]; checkerboard, 24 h at 37 °C): 0.0625; respiratory chain dehydrogenase activity (TPF formed) [15]: significant decrease in the TPF formed; Gallic acid equivalent antioxidant capacity (GEAC) [16]: 104.87 ± 1.43 μg/mL and 106.03 ± 0.87^d μg/mL; DPPH free radical scavenging activity (EC50) [17]: 3.08 ± 0.44^e μg/mL; Interpretation (of FIC index) [18]: Synergistic (FIC ≤ 0.5: synergistic effect); FIC (fractional inhibitory concentration index) ([18]; checkerboard): 0.281; FICEx / FIC2 / FIC5 (MIC of extract/compound tested in combination/MIC of extract/compound tested alone) ([18]; checkerboard): 0.25; FICA (MIC of antibiotic tested in combination/MIC of antibiotic tested alone) ([18]; checkerboard, 24 h at 37 °C): 0.031; effect of the association with ciprofloxacin (bacteria) / fluconazole (yeasts) [19]: synergistic; appearance of reducing sugar in the bacterial culture suspension [20]: increased; leakage of biological material absorbing at 260 and 280 nm [21]: induced leakage; MMC/MIC ([22]; MRSA03): 2; MMC ([22]; MRSA03, sub-culturing after broth microdilution): 32 µg/mL; MIC ([22]; Staphylococcus aureus): 16 µg/mL (≈ 56.3 µM); MMC/MIC ([23]; S. aureus): 1; MMC ([23]; S. aureus, sub-culturing after broth microdilution): 8 µg/mL; MIC ([23]; Staphylococcus aureus, ATCC25923): 8 µg/mL (≈ 28.1 µM)

With Triton X-100 as the molecule, how does the “lysis of RBCs” value [24] read?
Its value is 100%.

Source: PMC8180025, “Antibacterial, antifungal and antioxidant activities of whole plant chemical constituents of Rumex abyssinicus” (BMC Complementary Medicine and Therapies, 2021)
